In patent publication US20120029187A1, “HALOALKYLSULFONANILIDE DERIVATIVE” (Nissan Chemical Industries, Ltd., priority 2009, published 2012):

Assays:
Assay type in all cases: in vivo
bulrush [1] = experiment: Test Example 1: herbicidal effects in preemergence treatment under submerged conditions; details: dose 2.52 g/a
Summary of the method: (§1)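 Alluvial soil was flooded to 4 cm, sown with barnyardgrass, bulrush and ducksalad, and planted with 2.5-leaf rice seedlings. On the seeding day, water-diluted emulsifiable concentrates were applied to the water surface at set doses (g/a). After three weeks in a 25 to 30° C. greenhouse, mortality was scored 0–5.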

barnyardgrass [2] = experiment: as above; details: dose 2.52 g/a
Summary of the method: as §1

ducksalad [3] = experiment: as above; details: dose 2.52 g/a
Summary of the method: as §1

bulrush [4] = experiment: Test Example 2: herbicidal effects during the vegetation period under submerged conditions; details: treatment during the vegetation period under submerged conditions; dose 2.52 g/a
Summary of the method: (§2)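 Barnyardgrass, bulrush and ducksalad were co-sown in alluvial soil flooded to 4 cm and grown in a greenhouse at 25 to 30° C. At the 1- or 2-leaf stage, water-diluted emulsifiable concentrates went onto the water surface at set doses (g/a). Herbicidal effect was scored three weeks later on a graded scale.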

barnyardgrass [5] = experiment: as above; details: treatment during the vegetation period under submerged conditions; dose 2.52 g/a
Summary of the method: as §2

ducksalad [6] = experiment: as above; details: treatment during the vegetation period under submerged conditions; dose 2.52 g/a
Summary of the method: as §2

redroot pigweed [7] = experiment: Test Example 3: herbicidal effects in soil treatment; details: dose 3.2 g/a
Summary of the method: (§3)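 Seeds were sown in sterilized diluvial soil and covered with about 1.5 cm of soil. Compounds, formulated as emulsifiable concentrates and diluted with water, were sprayed evenly over the soil surface at set doses in g/a. Herbicidal effect was scored on a rating scale three weeks later.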

common chickweed [8] = experiment: as above; details: dose 3.2 g/a
Summary of the method: as §3

Italian ryegrass [9] = experiment: as above; details: dose 3.2 g/a
Summary of the method: as §3

water foxtail [10] = experiment: as above; details: dose 3.2 g/a
Summary of the method: as §3

common ragweed [11] = experiment: as above; details: dose 3.2 g/a
Summary of the method: as §3

velvetleaf [12] = experiment: as above; details: dose 3.2 g/a
Summary of the method: as §3

large crabgrass [13] = experiment: as above; details: dose 3.2 g/a
Summary of the method: as §3

giant foxtail [14] = experiment: as above; details: dose 3.2 g/a
Summary of the method: as §3

wild oat [15] = experiment: as above; details: dose 3.2 g/a
Summary of the method: as §3

barnyardgrass [16] = experiment: as above; details: dose 3.2 g/a
Summary of the method: as §3

common lambsquater [17] = experiment: as above; details: dose 3.2 g/a
Summary of the method: as §3

beadstraw [18] = experiment: as above; details: dose 3.2 g/a
Summary of the method: as §3

transplanted rice = experiment: Test Example 1: preemergence treatment under submerged conditions, effect on crop; details: dose 2.52 g/a
Summary of the method: as §1

redroot pigweed [19] = experiment: Test Example 4: herbicidal effect in foliage treatment; details: dose 3.2 g/a, three weeks after application
Summary of the method: (§4)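 Seeds were spot-sown in boxes of sterilized diluvial soil and raised in a greenhouse (25 to 30° C) for 14 days before a single foliar application. Compounds were applied as emulsifiable concentrates diluted with water, at predetermined doses in g/a. Injury was graded three weeks post-spray.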

common chickweed [20] = experiment: as above; details: dose 3.2 g/a, three weeks after application
Summary of the method: as §4

Italian ryegrass [21] = experiment: as above; details: dose 3.2 g/a, three weeks after application
Summary of the method: as §4

water foxtail [22] = experiment: as above; details: dose 3.2 g/a, three weeks after application
Summary of the method: as §4

posumbu knotweed = experiment: as above; details: dose 3.2 g/a, three weeks after application
Summary of the method: as §4

common ragweed [23] = experiment: as above; details: dose 3.2 g/a, three weeks after application
Summary of the method: as §4

velvetleaf [24] = experiment: as above; details: dose 3.2 g/a, three weeks after application
Summary of the method: as §4

large crabgrass [25] = experiment: as above; details: dose 3.2 g/a, three weeks after application
Summary of the method: as §4

giant foxtail [26] = experiment: as above; details: dose 3.2 g/a, three weeks after application
Summary of the method: as §4

wild oat [27] = experiment: as above; details: dose 3.2 g/a, three weeks after application
Summary of the method: as §4

barnyardgrass [28] = experiment: as above; details: dose 3.2 g/a, three weeks after application
Summary of the method: as §4

common lambsquater [29] = experiment: as above; details: dose 3.2 g/a, three weeks after application
Summary of the method: as §4

beadstraw [30] = experiment: as above; details: dose 3.2 g/a, three weeks after application
Summary of the method: as §4

Row | Compound | B: bulrush, herbicidal effect (evaluation scale 0-5) (bulrush [1]) | A: barnyardgrass, herbicidal effect (evaluation scale 0-5) (barnyardgrass [2]) | C: ducksalad, herbicidal effect (evaluation scale 0-5) (ducksalad [3]) | B: bulrush, herbicidal effect (evaluation scale 0-5) (bulrush [4]) | A: barnyardgrass, herbicidal effect (evaluation scale 0-5) (barnyardgrass [5]) | C: ducksalad, herbicidal effect (evaluation scale 0-5) (ducksalad [6]) | K: redroot pigweed, herbicidal effect (evaluation scale 0-5) (redroot pigweed [7]) | N: common chickweed, herbicidal effect (evaluation scale 0-5) (common chickweed [8]) | H: Italian ryegrass, herbicidal effect (evaluation scale 0-5) (Italian ryegrass [9]) | G: water foxtail, herbicidal effect (evaluation scale 0-5) (water foxtail [10]) | J: common ragweed, herbicidal effect (evaluation scale 0-5) (common ragweed [11]) | I: velvetleaf, herbicidal effect (evaluation scale 0-5) (velvetleaf [12]) | D: large crabgrass, herbicidal effect (evaluation scale 0-5) (large crabgrass [13]) | E: giant foxtail, herbicidal effect (evaluation scale 0-5) (giant foxtail [14]) | F: wild oat, herbicidal effect (evaluation scale 0-5) (wild oat [15]) | A: barnyardgrass, herbicidal effect (evaluation scale 0-5) (barnyardgrass [16]) | L: common lambsquater, herbicidal effect (evaluation scale 0-5) (common lambsquater [17]) | O: beadstraw, herbicidal effect (evaluation scale 0-5) (beadstraw [18]) | a: transplanted rice, effect on crop (evaluation scale 0-5) (transplanted rice) | K: redroot pigweed, herbicidal effect (redroot pigweed [19]) | other results
1 | CCCCOC(=O)N(c1ccccc1CN1COC(C)(C)CC1=O)S(=O)(=O)C(F)(F)F [II-25] | 5 (mortality of 90% or above (nearly complete death)) | 5 (mortality of 90% or above (nearly complete death)) | 5 (mortality of 90% or above (nearly complete death)) | 5 (mortality of 90% or above (nearly complete death)) | 5 (mortality of 90% or above (nearly complete death)) | 5 (mortality of 90% or above (nearly complete death)) | 0 (mortality of less than 5% (almost ineffective)) | 4 (mortality of at least 70% and less than 90%) | 1 (mortality of at least 5% and less than 20%) | 5 (mortality of 90% or above (nearly complete death)) | 4 (mortality of at least 70% and less than 90%) | 5 (mortality of 90% or above (nearly complete death)) | 4 (mortality of at least 70% and less than 90%) | 3 (mortality of at least 40% and less than 70%) | 0 (mortality of less than 5% (almost ineffective)) | 4 (mortality of at least 70% and less than 90%) | 0 (mortality of less than 5% (almost ineffective)) | 5 (mortality of 90% or above (nearly complete death)) | 0 (mortality of less than 5% (almost ineffective)) | 0 (mortality of less than 5% (almost ineffective)) | N: common chickweed, herbicidal effect (common chickweed [20]): 4 (mortality of at least 70% and less than 90%); H: Italian ryegrass, herbicidal effect (Italian ryegrass [21]): 0 (mortality of less than 5% (almost ineffective)); G: water foxtail, herbicidal effect (water foxtail [22]): 5 (mortality of 90% or above (nearly complete death)); M: posumbu knotweed, herbicidal effect (posumbu knotweed): 1 (mortality of at least 5% and less than 20%); J: common ragweed, herbicidal effect (common ragweed [23]): 3 (mortality of at least 40% and less than 70%); I: velvetleaf, herbicidal effect (velvetleaf [24]): 4 (mortality of at least 70% and less than 90%); D: large crabgrass, herbicidal effect (large crabgrass [25]): 5 (mortality of 90% or above (nearly complete death)); E: giant foxtail, herbicidal effect (giant foxtail [26]): 5 (mortality of 90% or above (nearly complete death)); F: wild oat, herbicidal effect (wild oat [27]): 0 (mortality of less than 5% (almost ineffective)); A: barnyardgrass, herbicidal effect (barnyardgrass [28]): 5 (mortality of 90% or above (nearly complete death)); L: common lambsquater, herbicidal effect (common lambsquater [29]): 1 (mortality of at least 5% and less than 20%); O: beadstraw, herbicidal effect (beadstraw [30]): 5 (mortality of 90% or above (nearly complete death))
2 | CCOC(=O)N(c1ccccc1CN1CC(C)(C)OCC1=O)S(=O)(=O)C(F)(F)F [Compound I-16] | 5 (mortality of 90% or above (nearly complete death)) | 5 (mortality of 90% or above (nearly complete death)) | 5 (mortality of 90% or above (nearly complete death)) | 5 (mortality of 90% or above (nearly complete death)) | 5 (mortality of 90% or above (nearly complete death)) | 5 (mortality of 90% or above (nearly complete death)) | 5 (mortality of 90% or above (nearly complete death)) | 5 (mortality of 90% or above (nearly complete death)) | 4 (mortality of at least 70% and less than 90%) | 5 (mortality of 90% or above (nearly complete death)) | 5 (mortality of 90% or above (nearly complete death)) | 5 (mortality of 90% or above (nearly complete death)) | 5 (mortality of 90% or above (nearly complete death)) | 5 (mortality of 90% or above (nearly complete death)) | 3 (mortality of at least 40% and less than 70%) | 5 (mortality of 90% or above (nearly complete death)) | 3 (mortality of at least 40% and less than 70%) | 0 (mortality of less than 5% (almost ineffective)) | 2 (mortality of at least 20% and less than 40%) | 2 (mortality of at least 20% and less than 40%) | N: common chickweed, herbicidal effect (common chickweed [20]): 5 (mortality of 90% or above (nearly complete death)); H: Italian ryegrass, herbicidal effect (Italian ryegrass [21]): 4 (mortality of at least 70% and less than 90%); G: water foxtail, herbicidal effect (water foxtail [22]): 5 (mortality of 90% or above (nearly complete death)); M: posumbu knotweed, herbicidal effect (posumbu knotweed): 3 (mortality of at least 40% and less than 70%); J: common ragweed, herbicidal effect (common ragweed [23]): 5 (mortality of 90% or above (nearly complete death)); I: velvetleaf, herbicidal effect (velvetleaf [24]): 5 (mortality of 90% or above (nearly complete death)); D: large crabgrass, herbicidal effect (large crabgrass [25]): 4 (mortality of at least 70% and less than 90%); E: giant foxtail, herbicidal effect (giant foxtail [26]): 4 (mortality of at least 70% and less than 90%); F: wild oat, herbicidal effect (wild oat [27]): 3 (mortality of at least 40% and less than 70%); A: barnyardgrass, herbicidal effect (barnyardgrass [28]): 5 (mortality of 90% or above (nearly complete death)); L: common lambsquater, herbicidal effect (common lambsquater [29]): 2 (mortality of at least 20% and less than 40%); O: beadstraw, herbicidal effect (beadstraw [30]): 3 (mortality of at least 40% and less than 70%)
